One block for each compound: values may come before it. Calls of active or inactive are those of the source.
Key:
Caspase-3 = biological target: T1, Caspase-3 (Homo sapiens, UniProt P42574); type: functional;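 further: Dose-response selectivity test against caspase-3 for candidate inhibitors of sentrin-specific proteases (SENPs)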
T1 sequence (P42574 whole entry): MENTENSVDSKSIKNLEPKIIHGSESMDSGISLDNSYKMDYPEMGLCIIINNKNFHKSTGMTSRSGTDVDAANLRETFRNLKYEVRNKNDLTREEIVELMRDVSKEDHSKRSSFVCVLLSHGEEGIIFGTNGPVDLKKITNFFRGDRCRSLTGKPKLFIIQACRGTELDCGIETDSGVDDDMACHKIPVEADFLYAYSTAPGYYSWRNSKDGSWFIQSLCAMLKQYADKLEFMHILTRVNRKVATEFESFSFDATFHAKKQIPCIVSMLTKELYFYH

[1] = biological target: T2, Sentrin-specific protease 7 (Homo sapiens, UniProt Q9BQF6); type: functional;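 further: Luminescence-based dose-response confirmation of ultra-high-throughput screening hits, measuring inhibition of SENP7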
T2 sequence (Q9BQF6 whole entry): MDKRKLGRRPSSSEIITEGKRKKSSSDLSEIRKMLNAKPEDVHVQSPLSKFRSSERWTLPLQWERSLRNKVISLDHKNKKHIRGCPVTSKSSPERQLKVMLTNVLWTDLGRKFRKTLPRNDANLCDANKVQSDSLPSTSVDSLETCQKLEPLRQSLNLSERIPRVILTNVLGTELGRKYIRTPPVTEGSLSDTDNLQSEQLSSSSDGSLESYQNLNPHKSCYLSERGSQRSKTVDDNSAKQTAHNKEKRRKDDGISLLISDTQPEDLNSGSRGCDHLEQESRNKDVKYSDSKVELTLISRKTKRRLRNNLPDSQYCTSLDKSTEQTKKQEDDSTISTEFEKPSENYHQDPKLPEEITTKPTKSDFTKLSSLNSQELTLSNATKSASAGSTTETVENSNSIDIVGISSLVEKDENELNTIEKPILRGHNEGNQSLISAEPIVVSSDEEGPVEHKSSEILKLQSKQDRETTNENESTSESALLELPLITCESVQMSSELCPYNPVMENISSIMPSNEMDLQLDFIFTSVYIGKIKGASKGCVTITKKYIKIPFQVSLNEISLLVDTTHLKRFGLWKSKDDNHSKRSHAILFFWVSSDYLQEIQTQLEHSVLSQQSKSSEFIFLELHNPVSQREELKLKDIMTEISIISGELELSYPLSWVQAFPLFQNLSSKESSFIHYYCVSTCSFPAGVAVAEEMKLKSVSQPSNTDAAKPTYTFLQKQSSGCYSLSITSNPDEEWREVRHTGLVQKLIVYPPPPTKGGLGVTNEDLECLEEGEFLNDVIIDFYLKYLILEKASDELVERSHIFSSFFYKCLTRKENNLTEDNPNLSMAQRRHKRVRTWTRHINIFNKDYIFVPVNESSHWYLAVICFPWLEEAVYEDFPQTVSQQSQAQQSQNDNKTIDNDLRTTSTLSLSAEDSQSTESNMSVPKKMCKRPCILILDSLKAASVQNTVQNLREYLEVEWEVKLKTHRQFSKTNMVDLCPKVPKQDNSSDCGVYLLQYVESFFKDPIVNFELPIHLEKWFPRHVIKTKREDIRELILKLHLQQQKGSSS

[2] = biological target: T3, Sentrin-specific protease 6 (Homo sapiens, UniProt Q9GZR1); type: functional;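 further: Luminescence-based dose-response confirmatory assay of SENP6 inhibition, following up an ultra-high-throughput screen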
T3 sequence (Q9GZR1 whole entry): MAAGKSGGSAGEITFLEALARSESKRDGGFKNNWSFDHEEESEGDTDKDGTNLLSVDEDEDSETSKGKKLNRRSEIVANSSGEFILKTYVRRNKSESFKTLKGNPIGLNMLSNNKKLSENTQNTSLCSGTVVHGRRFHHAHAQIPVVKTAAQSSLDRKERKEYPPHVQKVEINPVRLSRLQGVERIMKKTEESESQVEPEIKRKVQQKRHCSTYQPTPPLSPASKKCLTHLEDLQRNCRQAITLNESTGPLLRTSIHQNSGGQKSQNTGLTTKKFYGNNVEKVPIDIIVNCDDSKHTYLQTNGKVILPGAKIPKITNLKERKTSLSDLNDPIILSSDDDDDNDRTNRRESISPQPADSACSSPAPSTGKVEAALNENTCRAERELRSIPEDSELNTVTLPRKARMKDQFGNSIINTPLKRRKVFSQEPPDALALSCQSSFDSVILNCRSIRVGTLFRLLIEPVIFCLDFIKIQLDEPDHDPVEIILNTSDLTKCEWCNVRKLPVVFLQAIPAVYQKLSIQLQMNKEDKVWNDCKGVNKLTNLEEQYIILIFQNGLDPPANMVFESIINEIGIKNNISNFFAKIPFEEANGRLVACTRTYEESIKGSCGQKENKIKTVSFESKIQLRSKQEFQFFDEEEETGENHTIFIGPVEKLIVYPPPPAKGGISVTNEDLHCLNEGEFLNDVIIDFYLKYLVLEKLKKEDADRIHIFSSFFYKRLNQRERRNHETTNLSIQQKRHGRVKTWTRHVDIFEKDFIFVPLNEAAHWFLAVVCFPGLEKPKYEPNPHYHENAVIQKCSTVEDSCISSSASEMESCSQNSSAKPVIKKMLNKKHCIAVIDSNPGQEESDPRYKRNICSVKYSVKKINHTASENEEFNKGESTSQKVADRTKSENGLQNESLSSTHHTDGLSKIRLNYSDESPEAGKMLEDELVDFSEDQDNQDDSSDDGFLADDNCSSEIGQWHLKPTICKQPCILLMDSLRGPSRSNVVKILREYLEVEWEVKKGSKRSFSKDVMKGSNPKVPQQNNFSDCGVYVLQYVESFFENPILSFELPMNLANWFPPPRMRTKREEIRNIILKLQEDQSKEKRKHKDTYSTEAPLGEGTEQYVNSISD

[3] = biological target: T4, Sentrin-specific protease 8 (Homo sapiens, UniProt Q96LD8); type: functional;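 further: luminescence read-out of SENP8 inhibition, dose-response confirmation following an ultra-high-throughput screen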
T4 sequence (Q96LD8 whole entry): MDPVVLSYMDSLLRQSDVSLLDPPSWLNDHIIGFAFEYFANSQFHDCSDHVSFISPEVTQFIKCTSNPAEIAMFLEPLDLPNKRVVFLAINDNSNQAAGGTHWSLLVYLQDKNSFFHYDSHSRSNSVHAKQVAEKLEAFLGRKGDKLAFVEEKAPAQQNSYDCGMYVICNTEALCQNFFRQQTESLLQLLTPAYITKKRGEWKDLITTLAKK

[4] = human group III sPLA2 inhibitors, dose response, biochemical, QFRET, IC50 (AID 743457);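 further: green fluorescence rise as the enzyme cleaves BODIPY PC-A2 in liposomes; potency for inhibition of the enzyme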
BJ [5] = test: cytotoxicity toward BJ-TERT fibroblasts, dose response, cell-based, RAS-independent, luminescence (AID 1933); type: functional, Homo sapiens; conditions: Homo sapiens, BJ
BJ [6] = test: cells; type: functional, cell-based, Homo sapiens; conditions: Homo sapiens, BJ
BJ [7] = test: cytotoxicity toward BJ-TERT-LT-ST fibroblasts, dose response, cell-based, RAS-independent, luminescence (AID 1935); type: functional, Homo sapiens; conditions: Homo sapiens, BJ;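 further: BJ fibroblasts immortalized with TERT plus LT and ST oncogenes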
[8] = cytotoxicity toward DRD oncogenic fibroblasts, dose response, cell-based, non-viral oncogenic, luminescence (AID 1934); type: functional; conditions: Homo sapiens
[9] = biological target: T5, Corticotropin-releasing factor receptor 2/Corticotropin-releasing factor-binding protein (Homo sapiens, UniProt P24387+Q13324); test: Dose Response confirmation of uHTS hits for small molecule antagonists of the CRF-binding protein and CRF-R2 receptor complex.; type: functional; conditions: read-out: IC50_Mean
T5 sequence (Q13324 whole entry): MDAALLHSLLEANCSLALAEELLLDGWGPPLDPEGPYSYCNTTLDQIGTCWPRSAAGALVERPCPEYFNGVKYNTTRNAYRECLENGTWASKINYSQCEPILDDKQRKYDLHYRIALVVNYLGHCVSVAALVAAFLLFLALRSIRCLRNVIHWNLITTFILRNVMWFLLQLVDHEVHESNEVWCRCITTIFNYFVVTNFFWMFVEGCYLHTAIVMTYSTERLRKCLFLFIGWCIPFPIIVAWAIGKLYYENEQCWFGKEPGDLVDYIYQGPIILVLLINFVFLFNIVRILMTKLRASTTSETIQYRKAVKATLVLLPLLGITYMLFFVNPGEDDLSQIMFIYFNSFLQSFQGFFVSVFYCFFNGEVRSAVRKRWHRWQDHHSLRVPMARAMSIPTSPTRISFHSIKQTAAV
T5 sequence (P24387 whole entry): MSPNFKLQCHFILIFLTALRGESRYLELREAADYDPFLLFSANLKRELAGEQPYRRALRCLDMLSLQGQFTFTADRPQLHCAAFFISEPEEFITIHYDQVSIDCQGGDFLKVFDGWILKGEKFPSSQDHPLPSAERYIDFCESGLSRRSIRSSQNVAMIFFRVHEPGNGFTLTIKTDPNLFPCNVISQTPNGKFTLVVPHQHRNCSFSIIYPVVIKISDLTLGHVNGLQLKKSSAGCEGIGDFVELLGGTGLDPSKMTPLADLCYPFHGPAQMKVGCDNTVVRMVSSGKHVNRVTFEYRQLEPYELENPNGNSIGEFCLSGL

[10] = biological target: T5, Corticotropin-releasing factor receptor 2/Corticotropin-releasing factor-binding protein; test: activators of CRF receptor 2 with binding protein – uHTS hits, confirmation (AID 602473); type: functional; conditions: read-out: EC50_Mean
[11] = CRF-BP/CRF-R2 complex antagonists, dose response, cell-based, uHTS hits, 384-well (AID 651639); type: functional, Homo sapiens; conditions: read-out: IC50_Mean
[12] = biological target: T6, Polyadenylate-binding protein 1 (Homo sapiens, UniProt P11940); test: PABP1 MLLE–PAM2 interaction inhibitors, dose response, miRNA deadenylation inhibitor project, biochemical, fluorescence polarization, Cy5-PAM2 peptide, secondary (AID 602260); type: functional; conditions: read-out: IC50_Mean
[13] = biological target: T6, Polyadenylate-binding protein 1; test: PABP1 MLLE–PAM2 binding inhibitor potency, dose response, biochemical, fluorescence polarization, FITC-PAM2 peptide (AID 602259); type: functional; conditions: read-out: IC50_Mean
[14] = biological target: T7, Low molecular weight phosphotyrosine protein phosphatase (Homo sapiens, UniProt P24666); type: functional; conditions: read-out: IC50_Mean;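 further: Dose-response confirmation assay measuring inhibition of LMPTP enzyme activity by fluorescence intensity read-out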
T7 sequence (P24666 whole entry): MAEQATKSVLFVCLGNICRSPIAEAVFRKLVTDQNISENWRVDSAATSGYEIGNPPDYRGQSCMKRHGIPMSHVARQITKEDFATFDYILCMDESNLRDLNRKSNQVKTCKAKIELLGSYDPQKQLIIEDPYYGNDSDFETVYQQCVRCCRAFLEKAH

Beta-galactosidase = Beta-galactosidase (Escherichia coli, UniProt Q8VNN2); test: PubChem AID 485352; type: functional
[15] = biological target: T8, Type-1 angiotensin II receptor (Homo sapiens, UniProt P30556); test: AT1 receptor antagonists, dose response, selectivity assay for APJ receptor antagonist project, cell-based, uHTS hits (AID 463214); type: functional;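 further: antagonist potency against angiotensin II stimulated AT1 response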
T8 sequence (P30556 whole entry): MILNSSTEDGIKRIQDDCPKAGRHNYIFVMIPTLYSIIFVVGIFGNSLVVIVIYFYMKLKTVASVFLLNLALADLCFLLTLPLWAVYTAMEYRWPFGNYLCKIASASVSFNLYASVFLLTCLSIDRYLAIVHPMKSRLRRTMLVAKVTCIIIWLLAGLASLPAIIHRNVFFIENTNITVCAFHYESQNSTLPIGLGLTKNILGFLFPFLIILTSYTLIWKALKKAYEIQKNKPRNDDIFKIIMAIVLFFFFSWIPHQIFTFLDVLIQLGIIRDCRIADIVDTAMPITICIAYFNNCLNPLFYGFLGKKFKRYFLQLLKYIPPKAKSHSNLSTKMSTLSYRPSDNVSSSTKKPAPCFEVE

HEK293 = test: cytotoxicity in HEK293T NF-kB-Luc cells, SAR follow-up, cytotoxicity control for NF-kB activator project, cell-based, resazurin fluorescence (AID 493251); type: functional; conditions: Homo sapiens
Protein Wnt-3a = Protein Wnt-3a (Mus musculus, UniProt P27467); test: Wnt3a-driven reporter signaling inhibition, dose response, selectivity assay for Gli-SUFU antagonist project, Wnt-LIGHT cells, luminescence (AID 651570); type: functional; conditions: read-out: IC50_Mean;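 further: Wnt-LIGHT reporter cells stimulated with conditioned medium from Wnt3a-producing cells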
[16] = inhibitors of intracellular T. cruzi replication, confirmation, NIH3T3 host cells, beta-gal luminescence (AID 2044); type: functional, cell-based;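 further: intracellular parasites grown in NIH/3T3 mouse fibroblasts as host cells; luminescent beta-galactosidase reporter signal from transgenic T. cruzi replicating inside host cells; inhibitors lower the luminescence signal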
[17] = cytotoxicity toward NIH3T3 fibroblasts, dose response, counter-screen, cell-based, ATP luminescence, mouse fibroblasts (AID 2010); type: functional;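 further: cells exposed to compound for about 90 hours before reading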

Beta-galactosidase, sequence (Q8VNN2 whole entry): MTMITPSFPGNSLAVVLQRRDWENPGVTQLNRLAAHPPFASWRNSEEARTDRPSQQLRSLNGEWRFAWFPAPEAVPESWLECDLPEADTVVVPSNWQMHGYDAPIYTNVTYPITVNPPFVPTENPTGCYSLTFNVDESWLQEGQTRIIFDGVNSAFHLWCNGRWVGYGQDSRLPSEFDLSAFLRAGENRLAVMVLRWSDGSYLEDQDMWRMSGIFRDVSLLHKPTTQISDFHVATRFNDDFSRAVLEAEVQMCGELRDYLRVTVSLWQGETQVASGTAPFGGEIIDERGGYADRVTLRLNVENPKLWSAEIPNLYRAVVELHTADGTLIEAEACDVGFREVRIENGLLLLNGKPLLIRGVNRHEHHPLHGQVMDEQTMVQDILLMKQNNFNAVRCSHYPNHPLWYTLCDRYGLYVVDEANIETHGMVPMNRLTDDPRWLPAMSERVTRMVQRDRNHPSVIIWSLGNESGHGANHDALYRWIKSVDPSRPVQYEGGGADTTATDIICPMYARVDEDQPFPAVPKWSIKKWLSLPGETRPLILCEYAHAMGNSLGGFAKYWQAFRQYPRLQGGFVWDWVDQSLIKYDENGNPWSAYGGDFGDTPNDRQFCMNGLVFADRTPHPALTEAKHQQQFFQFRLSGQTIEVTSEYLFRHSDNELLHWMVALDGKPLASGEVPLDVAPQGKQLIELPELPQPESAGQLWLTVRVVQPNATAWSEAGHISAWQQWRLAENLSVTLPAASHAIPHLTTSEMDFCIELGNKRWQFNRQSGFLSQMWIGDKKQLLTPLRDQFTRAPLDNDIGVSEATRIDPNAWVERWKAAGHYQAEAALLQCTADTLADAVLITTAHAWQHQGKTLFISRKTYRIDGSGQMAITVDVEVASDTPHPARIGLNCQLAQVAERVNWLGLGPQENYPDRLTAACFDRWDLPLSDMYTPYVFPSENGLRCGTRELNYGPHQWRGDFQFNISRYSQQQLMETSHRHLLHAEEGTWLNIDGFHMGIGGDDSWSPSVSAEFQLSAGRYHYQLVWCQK
T6 sequence (P11940 whole entry): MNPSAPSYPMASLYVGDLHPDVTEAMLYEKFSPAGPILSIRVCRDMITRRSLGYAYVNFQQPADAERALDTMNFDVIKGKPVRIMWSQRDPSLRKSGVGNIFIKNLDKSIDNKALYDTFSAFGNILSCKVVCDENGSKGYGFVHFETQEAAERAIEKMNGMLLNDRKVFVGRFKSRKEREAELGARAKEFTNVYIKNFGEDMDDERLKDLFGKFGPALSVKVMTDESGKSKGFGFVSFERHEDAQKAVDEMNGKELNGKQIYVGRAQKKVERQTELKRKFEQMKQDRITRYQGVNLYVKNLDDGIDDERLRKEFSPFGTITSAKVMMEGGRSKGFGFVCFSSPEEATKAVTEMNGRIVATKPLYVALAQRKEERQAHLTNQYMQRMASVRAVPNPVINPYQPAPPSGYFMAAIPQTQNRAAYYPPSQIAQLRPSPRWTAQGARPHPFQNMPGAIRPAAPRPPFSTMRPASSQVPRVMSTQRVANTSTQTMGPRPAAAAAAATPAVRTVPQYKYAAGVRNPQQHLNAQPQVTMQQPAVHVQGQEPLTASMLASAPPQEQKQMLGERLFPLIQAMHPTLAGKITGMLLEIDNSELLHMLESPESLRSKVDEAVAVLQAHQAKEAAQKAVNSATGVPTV
Protein Wnt-3a, sequence (P27467 whole entry): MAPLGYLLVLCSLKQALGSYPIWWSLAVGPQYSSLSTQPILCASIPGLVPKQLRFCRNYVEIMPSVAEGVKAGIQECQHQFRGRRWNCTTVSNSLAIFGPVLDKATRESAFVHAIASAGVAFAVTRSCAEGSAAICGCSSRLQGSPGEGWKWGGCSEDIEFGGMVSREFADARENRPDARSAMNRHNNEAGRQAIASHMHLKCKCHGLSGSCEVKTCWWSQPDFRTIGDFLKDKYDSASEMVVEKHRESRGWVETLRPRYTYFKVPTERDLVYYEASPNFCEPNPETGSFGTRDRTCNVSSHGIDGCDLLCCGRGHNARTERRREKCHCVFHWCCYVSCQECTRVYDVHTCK

SMILES: Oc1cc(C(F)(F)F)nc2ccc(OC(F)(F)F)cc12
EC50 (BJ [5]): 38.8 µM (active)
EC50 (BJ [6]): 41.4 µM (active)
EC50 (BJ [7]): > 150 µM (not active)
EC50 [8]: 38.4 µM (active)
IC50 [9]: 4.24 µM (active)
EC50 [10]: 5.39 µM (active)
IC50 [11]: > 20 µM (inactive)

SMILES: C/C(=N\NC(=S)NCCc1ccccc1)c1ccc(O)cc1O
IC50 [12]: > 66 µM (inactive)
IC50 [13]: > 66 µM (inactive)
IC50 [4]: > 122 µM (inactive)

SMILES: CC(=O)Nc1ccc(NC(=O)CCC(=O)OCC(=O)c2cccc([N+](=O)[O-])c2)cc1
EC50 (Beta-galactosidase): > 40 µM (inactive)
IC50 [15]: 26 µM (not active)

SMILES: CC(C)(C)c1ccc(-c2noc(CCC(=O)O)n2)cc1
IC50 (HEK293): > 80 µM (inactive)

SMILES: COc1ccc(NC(=O)NC(C)c2ccc3c(c2)OCO3)c(OC)c1 (stereo not given)
IC50 [9]: < 0.368 µM (active)
EC50 [10]: > 53 µM (inactive)
IC50 [11]: > 20 µM (inactive)

SMILES: c1ccc(C[n+]2c(-c3ccccc3)cn3c2SCCC3)cc1
IC50 (Protein Wnt-3a): 7.13 µM (active)

SMILES: CCOc1ccccc1/N=C1\SC(CC(=O)Nc2ccc(OC)cc2OC)C(=O)N1CCC1=CCCCC1 (stereo not given)
EC50 [16]: 1.98 µM (active)
EC50 [17]: > 60 µM (not active)
IC50 [9]: < 0.368 µM (active)
EC50 [10]: > 53 µM (inactive)
IC50 [11]: > 20 µM (inactive)

Second part, led by results:

IC50 (Caspase-3): 19.8 µM (active)
IC50 [1]: 6.48 µM (active)
IC50 [2]: 19.7 µM (active)
SMILES: CCOC(=O)/C=C(\C)N1N=C(c2ccccc2)CC1c1ccccc1 (stereo not given)
IC50 [3]: 36.1 µM (active)

IC50 [4]: > 122 µM (inactive)
SMILES: O=C1C(=O)N(Cc2ccc(-c3ccc(Cl)nc3)cc2)c2ccc(OC(F)(F)F)cc21

IC50 (Caspase-3): 16.2 µM (active)
IC50 [1]: 13.9 µM (active)
IC50 [2]: 19 µM (active)
SMILES: O=C1/C(=C/N(C(=O)c2ccco2)c2ccc(Br)cc2)Sc2ccccc21
IC50 [3]: 24.7 µM (active)

IC50 [14]: 41.8 µM (inactive)
SMILES: N=c1c(C(=O)NCc2ccco2)cc2c(=O)n3ccccc3nc2n1Cc1ccc(Cl)cc1

IC50 [4]: > 40.6 µM (inactive)
SMILES: COc1ccc(-n2c(SCC(=O)NN=C(S)Nc3ccccc3)nc3ccccc3c2=O)cc1

EC50 (Beta-galactosidase): > 40 µM (inactive)
IC50 [15]: > 40 µM (not active)
SMILES: O=C(Nc1nnc(SCc2ccc(F)cc2)s1)c1cnccn1
